Data on 2 compounds can be found in patent US20050153932A1, “Controlled muscle relaxation” (priority 2003, published 2005).

Assay [1] concerns neuromuscular block in a patient. To be noted: endotracheal intubation; cited from earlier work.
Assay [2] deals with M. adductor pollicis contractions. Nature of the assay: Vecuronium-induced block of M. adductor pollicis contractions (TOF stimulation) and effect of Org 25969 in anaesthetised Rhesus monkeys. Type of assay: in vivo, Rhesus monkey. As to conditions: for 0.50-0.90 TOF ratio interval / 25-75% recovery index / time to 25% recovery of T1 / time to 90% recovery of T1 / time to TOF ratio 0.90: spontaneous recovery. The procedure: • T1: first twitch: amplitude of the first response to TOF stimulation, expressed as percentage of control T1 (%). • T4/T1 ratio: the ratio of T4 over T1 (within one TOF stimulus) expressed as decimals.
Female Rhesus monkeys were starved overnight and sedated with 10 mg·kg^−1 ketamine i.m., followed by i.v. injection of 25 mg·kg^−1 pentobarbitone sodium and subsequent infusion of 5-10 mg·kg^−1hr^−1. The animals were intubated and ventilated with a mixture of oxygen and nitrous oxide (2:3), using a ventilator. The expired CO2 level was measured using a capnograph. The tidal volume was adjusted to obtain a CO2 level of approximately 4.5%. Oxygen saturation was measured via a probe on the earlobe using a pulse oxymeter. Blood pressure was measured non-invasively with a cuff placed on the tail. The ECG was recorded and heart rate was measured. Rectal temperature was measured and body temperature was kept at 37-38° C. using a heating blanket. The right hand and right arm of the animal were fixed to a frame using surgical tape. The thumb was connected to a force transducer. A pre-load of 200-500 mN was applied. Two needle electrode were placed near the N. ulnaris and the nerve was stimulated with train-of-four pulses (pulse duration: 2 ms, train-frequency: 0.07 Hz). At the end of the experiment, the animals were allowed to recover from anesthesia. Appropriate recovery care was given to all animals. Two groups of monkeys were used to assess the reversal effects of Org 25969 against the neuromuscular blocking agents rocuronium (Esmeron®/Zemuron®) and vecuronium (Norcuron®). In the first group, animals initially received an intravenous bolus injection of a 1×ED90 dose of rocuronium bromide to induce neuromuscular block, followed by spontaneous recovery of the twitches. After complete recovery of the twitches, each group received a second and larger 5×ED90 dose of rocuronium followed by spontaneous recovery in one subgroup, whereas the other subgroup received an intravenous bolus dose of 1150 nmol·kg^−1 Org 25969 as soon as all twitches had disappeared. In the vecuronium groups of animals, the same protocol was used, but rocuronium was replaced by vecuronium. Rocuronium bromide and vecuronium bromide were dissolved in a citric acid/phosphate/mannitol buffer (pH 4.0). Org 25969 was dissolved in saline.

[3] abbreviates: 5× ED90 vecuronium, spontaneous recovery subgroup.

In the case of `C[N+](C)(C)CCOC(=O)CCC(=O)OCC[N+](C)(C)C` [suxamethonium], in assay [1], the duration of action was 5 to 8 min and the onset is roughly 1 min.

As to `CC(=O)O[C@H]1C[C@@H]2CC[C@@H]3[C@H](CC[C@@]4(C)[C@H]3C[C@H]([N+]3(C)CCCCC3)[C@@H]4OC(C)=O)[C@@]2(C)C[C@@H]1N1CCCCC1` [vecuronium, vecuronium bromide], in assay [2] (1× ED90 vecuronium), the onset time worked out at 4.3 ± 0.6 min, the “0.50-0.90 TOF ratio interval” value turned out to be 4.9 ± 0.5 min, the 25-75% recovery index stood at 5.4 ± 0.8 min and the “time to 25% recovery of T1” value was found to be 8.6 ± 1.0 min. Moreover, in assay [2] (1× ED90 vecuronium), the “time to 90% recovery of T1” value was 18.1 ± 1.9 min and the “time to TOF ratio 0.90” value was 17.2 ± 1.6 min. The same compound gave a block in assay [2] (1× ED90 vecuronium, Mean ± SEM, n = 4) of 91.5 ± 1.7%. Besides, in assay [2] (5× ED90 vecuronium), the “0.50-0.90 TOF ratio interval” value was 11.8 ± 1.3 min, the 25-75% recovery index came out at 9.6 ± 2.0 min, the “time to 25% recovery of T1” value is on record as 28.6 ± 2.8 min and the “time to 90% recovery of T1” value is 44.0 ± 4.6 min. The “time to TOF ratio 0.90” value in assay [2] (5× ED90 vecuronium) was determined as 49.0 ± 4.7 min. In assay [2] (setting [3]), this compound registered a block of 100.0 ± 0.0% and an onset time of 1.0 ± 0.1 min.
